In publication PMC13702766, “Pharmacokinetic-Modifying Linker Design Modulates Performance of Multivalent PSMA/GRPR-Cell-Targeting ^177Lu Radiopharmaceuticals” (Cancers, 2026):

Target: T1, PSMA (Homo sapiens, UniProt Q04609)
T1 construct: LNCaP whole cells were prepared in suspension; host or cells: LNCaP human prostate carcinoma cells
Experiment: Whole-cell competitive binding assay in PSMA[+] LNCaP cells vs [177Lu]Lu-PSMA-617
Description: LNCaP whole cells were prepared in suspension (7.50 × 10^5 cells/mL) in binding media (DMEM + 0.2% BSA + 25 mM HEPES). […] Samples were incubated at room temperature for 60 min, centrifuged, and the supernatant was removed. Cell pellets were washed twice with ice-cold PBS and subsequently counted using an automated gamma counter. […] IC50 values were determined by nonlinear regression in GraphPad Prism, with all experiments performed in triplicate.

T1 sequence (Q04609 whole entry): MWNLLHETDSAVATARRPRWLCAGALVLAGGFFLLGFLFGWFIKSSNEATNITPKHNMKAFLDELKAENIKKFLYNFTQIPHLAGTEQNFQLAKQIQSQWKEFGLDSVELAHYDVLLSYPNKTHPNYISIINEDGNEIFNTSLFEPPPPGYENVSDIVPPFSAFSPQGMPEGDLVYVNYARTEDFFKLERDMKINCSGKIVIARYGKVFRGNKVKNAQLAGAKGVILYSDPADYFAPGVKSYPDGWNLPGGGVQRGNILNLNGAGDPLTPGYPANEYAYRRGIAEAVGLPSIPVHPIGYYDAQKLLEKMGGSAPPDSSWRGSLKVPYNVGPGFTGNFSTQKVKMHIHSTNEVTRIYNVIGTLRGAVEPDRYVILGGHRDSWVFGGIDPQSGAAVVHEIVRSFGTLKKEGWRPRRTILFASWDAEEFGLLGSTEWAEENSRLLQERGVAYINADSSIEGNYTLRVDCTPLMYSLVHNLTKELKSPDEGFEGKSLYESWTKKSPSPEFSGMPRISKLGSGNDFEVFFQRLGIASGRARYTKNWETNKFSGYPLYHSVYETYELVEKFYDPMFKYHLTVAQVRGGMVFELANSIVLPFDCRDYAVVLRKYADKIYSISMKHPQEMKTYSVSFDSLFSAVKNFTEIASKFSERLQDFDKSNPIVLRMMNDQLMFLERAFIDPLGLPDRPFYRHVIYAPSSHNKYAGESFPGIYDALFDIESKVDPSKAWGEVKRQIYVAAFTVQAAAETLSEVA

## O=C(O)CC[C@H](NC(=O)N[C@@H](CCCCNC(=O)[C@H](Cc1ccc2ccccc2c1)NC(=O)[C@H]1CC[C@H](CNC(=O)CN2CCN(CC(=O)O)CCN(CC(=O)O)CCN(CC(=O)O)CC2)CC1)C(=O)O)C(=O)O [PSMA-617]
  IC50: 2.7 ± 0.1 nM
